Test results taken from patent publication US20080119501A1, “IMMEDIATE RELEASE OXYMORPHONE COMPOSITIONS AND METHODS OF USING SAME” (priority 2006, published 2008).

Assay: Single- and multiple-dose pharmacokinetic and dose-proportionality study of oxymorphone IR tablets in healthy subjects
Details: for AUC(0-inf) / concentration at 6 day / concentration at 7 day / concentration at 8 day / Cmax / half-life: both, human, oral; for AUC∞, mean: n=23
[1] = single dose oxymorphone IR 5 mg
[2] = single dose oxymorphone IR 10 mg
[3] = single dose oxymorphone IR 20 mg
[4] = steady state, oxymorphone IR 5 mg q6 h
[5] = steady state, oxymorphone IR 10 mg q6 h
[6] = steady state, oxymorphone IR 20 mg q6 h
[7] = single dose oxymorphone IR 5 mg, plasma
[8] = single dose oxymorphone IR 10 mg, plasma
[9] = single dose oxymorphone IR 20 mg, plasma

CN1CC[C@]23c4c5ccc(O)c4O[C@H]2C(=O)CC[C@@]3(O)[C@H]1C5 [Oxymorphone, oxymorphone]
dose proportionality of dose-normalised AUC∞, AUCss or Cmax (5-20 mg, single dose and steady state): linear and dose-proportional pharmacokinetics | AUC(0-inf) (plasma, 5 mg): 4.48 ng·h/mL | concentration at 6 day (plasma, 5 mg): 0.47 ng/mL | concentration at 7 day (plasma, 5 mg): 0.5 ng/mL | concentration at 8 day (plasma, 5 mg): 0.49 ng/mL | Cmax (plasma, 5 mg, mean, single dose oxymorphone IR 5 mg): 1.1 ng/mL | Cmax (plasma, 5 mg, mean, steady state, oxymorphone IR 5 mg q6 h): 1.73 ng/mL | half-life (plasma, 5 mg, t1/2 (terminal elimination half-life), mean, single dose oxymorphone IR 5 mg): 7.25 h | AUC(0-inf) (plasma, 10 mg): 9.1 ng·h/mL | concentration at 6 day (plasma, 10 mg): 0.98 ng/mL | concentration at 7 day (plasma, 10 mg): 0.99 ng/mL | concentration at 8 day (plasma, 10 mg): 1.16 ng/mL | Cmax (plasma, 10 mg, mean, single dose oxymorphone IR 10 mg): 1.93 ng/mL | Cmax (plasma, 10 mg, mean, steady state, oxymorphone IR 10 mg q6 h): 3.51 ng/mL | half-life (plasma, 10 mg, t1/2 (terminal elimination half-life), mean, single dose oxymorphone IR 10 mg): 7.78 h | AUC(0-inf) (plasma, 20 mg): 20.1 ng·h/mL | concentration at 6 day (plasma, 20 mg): 2.05 ng/mL | concentration at 7 day (plasma, 20 mg): 2.31 ng/mL | concentration at 8 day (plasma, 20 mg): 2.47 ng/mL | Cmax (plasma, 20 mg, mean, single dose oxymorphone IR 20 mg): 4.39 ng/mL | Cmax (plasma, 20 mg, mean, steady state, oxymorphone IR 20 mg q6 h): 7.33 ng/mL | half-life (plasma, 20 mg, elimination half-life (t1/2) across doses, single dose, oxymorphone IR 5, 10 and 20 mg): 7.3 to 9.4 h | half-life (plasma, 20 mg, t1/2 (terminal elimination half-life), mean, single dose oxymorphone IR 20 mg): 9.43 h | time to achieve steady-state conditions (dosing every 6 hours, from trough concentrations): 3 to 4 days | CL/F (oral clearance), mean [1]: 23.53 L/min | Ln-CL/F, geometric least square mean (standard error), normalised to 10 mg [1]: 20.61 (1.05) L/min | terminal elimination rate constant, mean [1]: 0.1534 h⁻¹ | CL/F (oral clearance), mean [2]: 21.42 L/min | Ln-CL/F, geometric least square mean (standard error), normalised to 10 mg [2]: 19.62 (1.05) L/min | terminal elimination rate constant, mean [2]: 0.1257 h⁻¹ | CL/F (oral clearance), mean [3]: 18.21 L/min | Ln-CL/F, geometric least square mean (standard error), normalised to 10 mg [3]: 17.27 (1.05) L/min | terminal elimination rate constant, mean [3]: 0.0835 h⁻¹ | Ln-CL/F, geometric least square mean (standard error), normalised to 10 mg (steady state, every 6 hours, oxymorphone IR 5 mg): 18.70 (1.03) L/min | Ln-CL/F, geometric least square mean (standard error), normalised to 10 mg (steady state, every 6 hours, oxymorphone IR 10 mg): 17.08 (1.03) L/min | Ln-CL/F, geometric least square mean (standard error), normalised to 10 mg (steady state, every 6 hours, oxymorphone IR 20 mg): 16.72 (1.03) L/min | C/LF (oral clearance), mean [4]: 19.23 L/min | Cavg (average plasma concentration), mean [4]: 0.77 ng/mL | Cmin, mean [4]: 0.49 ng/mL | C/LF (oral clearance), mean [5]: 17.63 L/min | Cavg (average plasma concentration), mean [5]: 1.70 ng/mL | Cmin, mean [5]: 1.16 ng/mL | tmax, median [5]: 0.50 h | C/LF (oral clearance), mean [6]: 17.68 L/min | Cavg (average plasma concentration), mean [6]: 3.52 ng/mL | Cmin, mean [6]: 2.47 ng/mL

CN1CC[C@]23c4c5ccc(O)c4O[C@H]2C(O)CC[C@@]3(O)[C@H]1C5 (stereo partly drawn) [6-OH-oxymorphone]
t1/2 (terminal elimination half-life), mean [1]: 7.27 h | terminal elimination rate constant, mean [1]: 0.1661 h⁻¹ | tmax, median [1]: 0.50 h | Cmax, mean [7]: 095 ng/mL | AUC∞, mean [7]: 4.02 ng·h/mL | t1/2 (terminal elimination half-life), mean [2]: 13.72 h | terminal elimination rate constant, mean [2]: 0.0752 h⁻¹ | tmax, median [2]: 0.50 h | Cmax, mean [8]: 1.62 ng/mL | AUC∞, mean [8]: 9.90 ng·h/mL | t1/2 (terminal elimination half-life), mean [3]: 18.35 h | terminal elimination rate constant, mean [3]: 0.0414 h⁻¹ | tmax, median [3]: 0.50 h | Cmax, mean [9]: 3.57 ng/mL | AUC∞, mean [9]: 24.37 ng·h/mL | deviation from a linear dose response (single-dose administration): approximately 20% | AUCSS, mean [4]: 4.98 ng·h/mL | Cavg (average plasma concentration), mean [4]: 0.83 ng/mL | Cmax, mean [4]: 1.55 ng/mL | Cmin, mean [4]: 0.70 ng/mL | tmax, median [4]: 0.50 h | AUCSS, mean [5]: 10.77 ng·h/mL | Cavg (average plasma concentration), mean [5]: 1.80 ng/mL | Cmax, mean [5]: 3.12 ng/mL | Cmin, mean [5]: 1.52 ng/mL | tmax, median [5]: 0.50 h | AUCSS, mean [6]: 23.68 ng·h/mL | Cavg (average plasma concentration), mean [6]: 3.95 ng/mL | Cmax, mean [6]: 6.94 ng/mL | Cmin, mean [6]: 3.34 ng/mL | tmax, median [6]: 0.50 h | deviation from a linear dose response (steady-state concentrations): approximately 10%

CN1CC[C@]23c4c5ccc(O[C@@H]6O[C@H](C(=O)O)[C@@H](O)[C@H](O)[C@H]6O)c4O[C@H]2C(=O)CC[C@@]3(O)[C@H]1C5 [Oxymorphone-3-glucuronide, oxymorphone-3-glucuronide]
t1/2 (terminal elimination half-life), mean [1]: 8.48 h | terminal elimination rate constant, mean [1]: 0.0936 h⁻¹ | tmax, median [1]: 1.00 h | Cmax, mean [7]: 134.24 ng/mL | AUC∞, mean [7]: 650.03 ng·h/mL | t1/2 (terminal elimination half-life), mean [2]: 9.15 h | terminal elimination rate constant, mean [2]: 0.0805 h⁻¹ | tmax, median [2]: 1.00 h | Cmax, mean [8]: 265.78 ng/mL | AUC∞, mean [8]: 1322.72 ng·h/mL | t1/2 (terminal elimination half-life), mean [3]: 9.67 h | terminal elimination rate constant, mean [3]: 0.0763 h⁻¹ | tmax, median [3]: 1.00 h | Cmax, mean [9]: 516.26 ng/mL | AUC∞, mean [9]: 2672.40 ng·h/mL | AUCSS, mean [4]: 618.77 ng·h/mL | Cavg (average plasma concentration), mean [4]: 103.13 ng/mL | Cmax, mean [4]: 180.25 ng/mL | Cmin, mean [4]: 59.67 ng/mL | tmax, median [4]: 1.00 h | AUCSS, mean [5]: 1321.37 ng·h/mL | Cavg (average plasma concentration), mean [5]: 220.23 ng/mL | Cmax, mean [5]: 376.25 ng/mL | Cmin, mean [5]: 136.77 ng/mL | tmax, median [5]: 1.00 h | AUCSS, mean [6]: 2557.29 ng·h/mL | Cavg (average plasma concentration), mean [6]: 426.22 ng/mL | Cmax, mean [6]: 722.24 ng/mL | Cmin, mean [6]: 272.54 ng/mL | tmax, median [6]: 1.00 h
